Results taken from patent publication US10092526B2, “Compositions and methods for treating respiratory injury or disease” (University of Pittsburgh—Of the Commonwealth System of …, priority 2013, dated 2018).
In brackets after ≈: the same amount, converted by molar mass. Where two headings read alike, the source gives them in different places.

Legend:
TNFα cytokine release = test: LPS-induced TNFα cytokine release in PBMC (ELISA); type: cell-based; conditions: LPS 50 ng/ml, 16 hours, TNFα release by ELISA
Protocol: Peripheral blood mononuclear cells (PBMC) (0.2 ml at 0.3×10^6/ml) were treated with lipopolysaccharide (LPS) (50 ng/ml) for 16 hours concurrently with each compound tested at different concentrations. TNFα cytokine release was monitored by ELISA. These concentrations were used to calculate the IC50.

[1] = U937 monocyte cytotoxicity, Trypan blue staining; type: cell-based; conditions: human
Protocol: (§1) U937 monocytes (0.2 ml at 0.3 x 10^6/ml) were treated with each compound at different concentrations for 16 hours. The cells were then stained with Trypan blue to identify dead cells, and to calculate the LC50. Combined values were used to generate therapeutic indexes (TI)=LC50/IC50.

U937 monocytes = test: U937 monocyte cytotoxicity, Trypan blue staining; type: cell-based
Protocol: as §1

IL1β = test: IC50IL1β measurements (FIG. 1); type: cell-based
[2] = system: cigarette smoke induced chronic lung inflammation; test: Smoke induced chronic lung inflammation (Example 6); type: in vivo, mice; conditions: cigarette smoke 5 weeks, single 100 ug dose i.p., 18 hours
Protocol: Mice were exposed to cigarette smoke for 5 weeks before a single 100 ug dose of Compound 014 was administered by i.p. injection. The mice were euthanized 18 hours later, and lungs were lavaged with saline, harvested, and then homogenized. Lavage protein, cell counts and cytokine secretion were measured. (n=3 mice/group, *P<0.05 versus control)

IMQ induced psoriasis = IMQ induced psoriasis model (Example 7); type: in vivo, BALB/c mice
Excerpt: An objective scoring system was developed based on the clinical Psoriasis Area and Severity Index (PASI), except that for the mouse model the affected skin area is not taken into account in the overall score. Erythema and scaling were scored independently on a scale from 0 to 4: 0, none; 1, slight; 2, moderate; 3, marked; 4, very marked. The level of erythema was scored using a scoring table with red taints. At day 7, mice were euthanized and spleens were removed for weight measuring.
Female BALB/c mice at 8 to 11 wk of age received a daily topical dose of 62.5 mg of commercially available IMQ cream (5%) (Aldara; 3M Pharmaceuticals) on the shaved back and the right ear for 5 or 6 consecutive days, translating in a daily dose of 3.125 mg of the active compound. Control mice were treated similarly with a control vehicle cream (Vaseline Lanette cream; Fagron). BC-1261 (also referred to herein as compound 014) were either given in drinking water or applied topically daily. To score the severity of inflammation of the back skin, an objective scoring system was developed based on the clinical Psoriasis Area and Severity Index (PASI), except that for the mouse model the affected skin area is not taken into account in the overall score. Erythema and scaling were scored independently on a scale from 0 to 4: 0, none; 1, slight; 2, moderate; 3, marked; 4, very marked. The level of erythema was scored using a scoring table with red taints. At day 7, mice were euthanized and spleens were removed for weight measuring. Skin and ear sample were also collected for H&E staining and epidermis thickness were measured and graphed. n=5-10 per group, *p<0.05.

[3] = system: Dexamethasone-induced muscle atrophy; test: Dexamethasone induced muscle myopathy model (Example 8); type: in vivo, C57BL mice
Protocol: C57BL mice were given daily i.p. injection of 0.1 ml of vehicle or Dexamethasone (10 mg/kg/d) for 14 days. Some mice were also given BC-1261 (also referred to herein as compound 014) in drinking water with estimated dose of 0.5, 2 and 5 mg/kg/d. Mice were then sacrificed and (tibialis anterior)TA muscle were removed, photographed (A), weighted (C), processed for H&E staining (B) and protein immunoblotting (E).

[4] = system: Pseudomonas aeruginosa strain PA103; test: Pseudomonas induced pneumonia, Compound 014 (Example 5); type: in vivo, mice; conditions: 30 μg or 150 μg IP
Protocol: Mice were administered either 30 μg or 150 μg of Compound 014 by IP injection, and these mice were then challenged with Pseudomonas aeruginosa strain PA103 (2.5×10^4 CFU/mouse, i.t.) for 18 hours. Mice were monitored on a FlexiVent to measure lung mechanics throughout the procedure. The mice were then sacrificed and lungs were lavaged with saline, harvested, and then homogenized. Lavage cells were processed with cytosin and stained with May-Grunwald and Geimsa, and H&E staining was performed on lung samples. Lavage protein, cell count, and cytokine secretion were measured. (n=4 mice/group, *P<0.05 versus PA103 versus Vehicle)

[5] = system: lung transplant rejection; test: Lung transplant acute rejection model (Example 9); type: in vivo, mouse; conditions: 5 mg/kg/d i.p. 2 days then drinking water 5 mg/kg/d 5 days
Protocol: Left lung from BALB/C mouse was surgically removed and transplanted into C57/BL mouse. Mice were given vehicle or BC-1261 (5 mg/kg/d i.p. injection) for 2 days until fully recovered. After that, BC-1261 (also referred to herein as compound 014) was administered through drinking water (5 mg/kg/d) for additional 5 days. Mice were then sacrificed, and the transplanted lungs were removed for H&E staining.

[6] = U937 monocytes, 16 hours, Trypan blue dead cells, read-out: LC50
[7] = therapeutic index (TI)=LC50/IC50
[8] = Dexamethasone 10 mg/kg/d i.p. 14 days
[9] = PA103, vs vehicle control infected mice, FIG. 9

c1ccc(CNCCNCc2ccccc2)cc1 [Benzathine, reference compound]
IC50 (TNFα cytokine release): 25 µg/mL (≈ 104 µM)
CC50 at 16 h [1]: 400 µg/mL (≈ 1660 µM)
TI (U937 monocytes; human, 16 h): 16
IC50 (IL1β): 25 µg/mL (≈ 104 µM)

c1cc(N2CCOCC2)ccc1CNCCNCc1ccc(N2CCOCC2)cc1 [Compound 001]
IC50 (TNFα cytokine release): 20 µg/mL (≈ 48.7 µM)
CC50 at 16 h [1, 6]: 260 µg/mL (≈ 633 µM)
TI (U937 monocytes; [7]): 13

c1cc(N2CCCC2)ccc1CNCCNCc1ccc(N2CCCC2)cc1 [Compound 002]
IC50 (TNFα cytokine release): 0.6 µg/mL (≈ 1.58 µM)
CC50 at 16 h [1, 6]: 7 µg/mL (≈ 18.5 µM)
TI (U937 monocytes; [7]): 11

c1cn(-c2ccc(CNCCNCc3ccc(-n4ccnc4)cc3)cc2)cn1 [Compound 003]
IC50 (TNFα cytokine release): 0.7 µg/mL (≈ 1.88 µM)
CC50 at 16 h [1, 6]: 130 µg/mL (≈ 349 µM)
TI (U937 monocytes; [7]): 142

c1cc(N2CCCCC2)ccc1CNCCNCc1ccc(N2CCCCC2)cc1 [Compound 004]
IC50 (TNFα cytokine release): 0.8 µg/mL (≈ 1.97 µM)
CC50 at 16 h [1, 6]: 27 µg/mL (≈ 66.4 µM)
TI (U937 monocytes; [7]): 33
IC50 (IL1β): 0.8 µg/mL (≈ 1.97 µM)

c1ccc(-c2ccc(CNCCNCc3ccc(-c4ccccn4)cc3)cc2)nc1 [Compound 005]
IC50 (TNFα cytokine release): 0.9 µg/mL (≈ 2.28 µM)
TI (U937 monocytes; [7]): 96
IC50 (IL1β): 0.9 µg/mL (≈ 2.28 µM)

c1cc(N2CCCC2)ccc1CNCCCCNCc1ccc(N2CCCC2)cc1 [Compound 006]
IC50 (TNFα cytokine release): 1 µg/mL (≈ 2.46 µM)
CC50 at 16 h [1, 6]: 1 µg/mL (≈ 2.46 µM)
TI (U937 monocytes; [7]): 1

c1cc(N2CCCC2)ccc1CNCCCNCc1ccc(N2CCCC2)cc1 [Compound 007]
IC50 (TNFα cytokine release): 1.1 µg/mL (≈ 2.8 µM)
CC50 at 16 h [1, 6]: 3.2 µg/mL (≈ 8.15 µM)
TI (U937 monocytes; [7]): 2.9

c1ccc(CNCCNCc2ccc(-c3ccccn3)cc2)nc1 [Compound 008]
IC50 (TNFα cytokine release): 1.5 µg/mL (≈ 4.71 µM)
CC50 at 16 h [1, 6]: 45 µg/mL (≈ 141 µM)
TI (U937 monocytes; [7]): 30

c1cnn(-c2ccc(CNCCNCc3ccc(-n4cccn4)cc3)cc2)c1 [Compound 009]
IC50 (TNFα cytokine release): 1.4 µg/mL (≈ 3.76 µM)
CC50 at 16 h [1, 6]: 80 µg/mL (≈ 215 µM)
TI (U937 monocytes; [7]): 57

c1ccc(-c2ccc(CNCCCCNCc3ccc(-c4ccccn4)cc3)cc2)nc1 [Compound 010]
IC50 (TNFα cytokine release): 1.5 µg/mL (≈ 3.55 µM)
CC50 at 16 h [1, 6]: 22 µg/mL (≈ 52.1 µM)
TI (U937 monocytes; [7]): 14.7
IC50 (IL1β): 1.5 µg/mL (≈ 3.55 µM)

c1csc(-c2ccc(CNCCNCc3ccc(-c4nccs4)cc3)cc2)n1 [Compound 011]
IC50 (TNFα cytokine release): 0.4 µg/mL (≈ 0.984 µM)
CC50 at 16 h [1, 6]: 8.5 µg/mL (≈ 20.9 µM)
TI (U937 monocytes; [7]): 21.3

c1csc(-c2ccc(CNCCNCc3ccc(-c4cccs4)cc3)cc2)c1 [Compound 012]
IC50 (TNFα cytokine release): 1.1 µg/mL (≈ 2.72 µM)
CC50 at 16 h [1, 6]: 1.8 µg/mL (≈ 4.45 µM)
TI (U937 monocytes; [7]): 1.6

c1coc(-c2ccc(CNCCNCc3ccc(-c4ccco4)cc3)cc2)c1 [Compound 013]
IC50 (TNFα cytokine release): 1.9 µg/mL (≈ 5.1 µM)
CC50 at 16 h [1, 6]: 5.5 µg/mL (≈ 14.8 µM)
TI (U937 monocytes; [7]): 2.8

c1cnc(-c2ccc(CNCCNCc3ccc(-c4ncccn4)cc3)cc2)nc1 [Compound 014]
IC50 (TNFα cytokine release): 0.4 µg/mL (≈ 1.01 µM)
CC50 at 16 h [1, 6]: 410 µg/mL (≈ 1030 µM)
TI (U937 monocytes; [7]): 1025
IC50 (IL1β): 0.4 µg/mL (≈ 1.01 µM)
lavage cell counts ([2]; FIG. 12): reduced
lavage protein concentration ([2]; FIG. 12): reduced
lavage pro-inflammatory cytokine levels ([2]; FIG. 12C): reduction
ear thickness (IMQ induced psoriasis; IMQ model): reduces
gross appearance (IMQ induced psoriasis; IMQ model): reduces
spleen weight (IMQ induced psoriasis; IMQ model, day 7): reduces
psoriasis index (IMQ induced psoriasis; IMQ model, score based on PASI): reduces
IMQ induced psoriasis (IMQ induced psoriasis; in drinking water or applied topically daily, BALB/C mice, FIGS. 13-17): effectively ameliorates
TRAF6 protein in TA muscle (immunoblotting) [3, 8]: degrading up-regulated TRAF6 protein
muscle wasting (cross sectional measurements, TA muscle H&E staining) [3, 8]: prevented
Dexamethasone-induced muscle atrophy ([3]; drinking water 0.5, 2 and 5 mg/kg/d, Dexamethasone 10 mg/kg/d i.p. 14 days): attenuates
dexamethasone-induced tibialis anterior muscle loss ([3]; even at 0.5 mg/kg/d in drinking water): significantly ameliorates
adverse effects of Pseudomonas on lung mechanics ([4]; PA103 2.5×10^4 CFU/mouse i.t., 18 hours): significantly ameliorated
lavage cell counts [4, 9]: reduced
lavage protein concentration [4, 9]: reduced
lavage pro-inflammatory cytokine levels ([4]; PA103, vs vehicle control infected mice, FIG. 9C): reduction
cell infiltrates (H&E staining) ([4]; PA103, vs vehicle control mice, FIG. 11): significantly reduced
neutrophils in May-Grunwald and Geimsa smears ([4]; PA103, vs vehicle control smears, FIG. 10): significantly fewer neutrophils
neutrophilia infiltrates induced by lung transplant rejection [5]: effectively ameliorates
transplanted lung H&E staining, infiltrates ([5]; vs vehicle group): completely protected lung

c1ccc(-c2ccc(CNCCNCc3ccc(-c4ccccc4)cc3)cc2)cc1 [Compound 015]
IC50 (TNFα cytokine release): 2 µg/mL (≈ 5.09 µM)
CC50 at 16 h [1, 6]: 2 µg/mL (≈ 5.09 µM)
TI (U937 monocytes; [7]): 1
IC50 (IL1β): 2 µg/mL (≈ 5.09 µM)

c1cnc(-c2ccc(CNCCCCNCc3ccc(-c4ncccn4)cc3)cc2)nc1 [Compound 016]
IC50 (TNFα cytokine release): 4 µg/mL (≈ 9.42 µM)
CC50 at 16 h [1, 6]: > 100 µg/mL
TI (U937 monocytes; [7]): >25

c1cc(N2CCCC2)ccc1CNCCCCCNCc1ccc(N2CCCC2)cc1 [Compound 017]
IC50 (TNFα cytokine release): 0.2 µg/mL (≈ 0.475 µM)
CC50 at 16 h [1, 6]: 4 µg/mL (≈ 9.51 µM)
TI (U937 monocytes; [7]): 20

Fc1cc(CNCCCCNCc2ccc(N3CCCC3)c(F)c2)ccc1N1CCCC1 [Compound 018]
IC50 (TNFα cytokine release): 0.1 µg/mL (≈ 0.226 µM)
CC50 at 16 h [1, 6]: 0.4 µg/mL (≈ 0.904 µM)
TI (U937 monocytes; [7]): 4

Cc1cc(CNCCCCNCc2ccc(N3CCCC3)c(C)c2)ccc1N1CCCC1 [Compound 019]
IC50 (TNFα cytokine release): 0.5 µg/mL (≈ 1.15 µM)
CC50 at 16 h [1, 6]: 1 µg/mL (≈ 2.3 µM)
TI (U937 monocytes; [7]): 2

Cc1cc(N2CCCC2)ccc1CNCCCCNCc1ccc(N2CCCC2)cc1C [Compound 020]
IC50 (TNFα cytokine release): 0.2 µg/mL (≈ 0.46 µM)
CC50 at 16 h [1, 6]: 2 µg/mL (≈ 4.6 µM)
TI (U937 monocytes; [7]): 10
